According to patent US7858349B2, “Anti-cancer compounds” (The Regents of the University of Colorado, priority 1999, dated 2010):

Tests used:
NSCLC strain A-549 = assay: MTT assay for cell survival, NSCLC A-549 in vitro; type: cell-based, human; settings: ED50 for killing of NSCLC strain A-549 in vitro, 4 days
SCLC strain SHP-77 = assay: MTT assay for cell survival, SCLC SHP-77 in vitro; type: cell-based, human; settings: ED50 for killing of SCLC strain SHP-77 in vitro, 4 days, 0 = no detectable activity, read-out: SCLC SHP-77 IC50
PC3 PC cells = assay: Inhibition of PC3 tumor growth in vivo in nude mice; parameters: species or system athymic nude mice; key to PC3 In vivo % inhib.: an IC50 value of “0” represents no detectable anti-cancer activity for a drug in a given cell line; “Stim.” indicates the observation of a stimulatory activity on the growth of the cancer cell line; settings: percent inhibition of tumor growth in nude mice; prostate cancer; i.p. 5 mg/kg/every second day or 10 mg/kg/every fourth day
Description: Compounds having high in vitro cytotoxic activity were tested against implanted tumors in vivo. Athymic nude mice were implanted subcutaneously with suspensions (2 million SHP-77 SCLC cells, 1 million A549 NSCLC cells or 1.5 million PC3 PC cells) in Matrigel suspension. On the eighth day after tumor implantation groups of 5 mice bearing implants were injected intraperitoneally with the compounds being tested at 5 mg/kg/every second day or at 10 mg/kg/every fourth day; control animals were injected with an equal volume of isotonic saline. Less soluble compounds were initially dissolved in dimethyl sulfoxide (DMSO) and diluted with medium. In those cases the control injections contained the same concentration of DMSO. Tumor size was measured with a caliper three times per week. Tumor volume was calculated by the formula: Volume(cc)=3.14×(length)×(width)^2/6 At autopsy tumors were removed and weighed. Tumor inhibition was calculated on both weight and measurement basis. In each Table, an IC50 value of “0” represents no detectable anti-cancer activity for a drug in a given cell line and “Stim.” indicates the observation of a stimulatory activity on the growth of the cancer cell line.

| SMILES | IC50 (NSCLC strain A-549) | IC50 (SCLC strain SHP-77) | PC3 In vivo % inhib. (PC3 PC cells) |
| --- | --- | --- | --- |
| O=C(C=Cc1c(F)c(F)c(F)c(F)c1F)NC(Cc1ccc(I)cc1)C(=O)NC1CN2CCC1CC2 [Analog M-1290, F5c-PIF-(S)-(−)-Aqu] | 14 µM | – | – |
| O=C(C=Cc1c(F)c(F)c(F)c(F)c1F)NC(Cc1ccc(-c2ccccc2)cc1)C(=O)NC1CN2CCC1CC2 [Analog M-1292, F5c-Bip-(S)-(−)-Aqu] | 9.8 µM | – | – |
| CC1(C)CC(NC(=O)C(Cc2ccc(OCc3c(Cl)cccc3Cl)cc2)NC(=O)c2ccc(-c3ccccc3)cc2)CC(C)(C)N1 (centres unmarked) [Analog M-1542, 4Bpc-OC2Y-Atmp] | – | 6.4 µM | Stim. |
| O=C(C=Cc1c(F)c(F)c(F)c(F)c1F)NC(Cc1ccc(OCc2c(Cl)cccc2Cl)cc1)C(=O)NC1CN2CCC1CC2 [Analog M-1544, F5c-OC2Y-(R)-Aqu] | – | 6 µM | 28% |
| O=C(C=Cc1c(F)c(F)c(F)c(F)c1F)NC(Cc1ccc(OCc2c(Cl)cccc2Cl)cc1)C(=O)NC1CN2CCC1CC2 [Analog M-1546, F5c-OC2Y-(S)-Aqu] | – | 1.8 µM | 29% |
| O=C(C=Cc1c(F)c(F)c(F)c(F)c1F)NC(Cc1ccc(OCc2c(Cl)cccc2Cl)cc1)C(=O)NC1CCN(Cc2ccccc2)CC1 (centres unmarked) [Analog M-1552, F5c-OC2Y-Abzp] | – | 13 µM | 52% |
| O=C(C=Cc1c(F)c(F)c(F)c(F)c1F)NC(Cc1ccc(OCc2c(Cl)cccc2Cl)cc1)C(=O)N1CCN(c2ncccn2)CC1 (centres unmarked) [Analog M-1554, F5c-OC2Y-Pmpz] | – | 6.8 µM | Stim. |
| CC1CN(C(=O)C(Cc2ccc(OCc3c(Cl)cccc3Cl)cc2)NC(=O)C=Cc2c(F)c(F)c(F)c(F)c2F)CC(C)N1Cc1ccccc1 (centres unmarked) [Analog M-1556, F5c-OC2Y-cDmbp] | – | 18 µM | 59% |
| COc1ccc2c(c1)c(CC(=O)N[C@@H](Cc1ccc(OCc3c(Cl)cccc3Cl)cc1)C(=O)NC1CCN(Cc3ccccc3)CC1)c(C)n2C(=O)c1ccc(Cl)cc1 [Analog M-1558, Indo-OC2Y-Abzp] | – | 9.6 µM | Stim. |
| COc1ccc2c(c1)c(CC(=O)NC(Cc1ccc(OCc3c(Cl)cccc3Cl)cc1)C(=O)N1CC(C)N(Cc3ccccc3)C(C)C1)c(C)n2C(=O)c1ccc(Cl)cc1 (centres unmarked) [Analog M-1560, Indo-OC2Y-cDmbp] | – | > 60 µM | Stim. |
| COc1ccc2c(c1)c(CC(=O)N[C@@H](Cc1ccc(OCc3c(Cl)cccc3Cl)cc1)C(=O)N1CCN(c3ncccn3)CC1)c(C)n2C(=O)c1ccc(Cl)cc1 [Analog M-1562, Indo-OC2Y-Pmpz] | – | > 60 µM | 2% |
| COc1ccc2c(c1)c(CC(=O)N[C@@H](Cc1ccc(OCc3c(Cl)cccc3Cl)cc1)C(=O)N1CCN(C/C=C/c3ccccc3)CC1)c(C)n2C(=O)c1ccc(Cl)cc1 [Analog M-1566, Indo-OC2Y-tCip] | – | > 60 µM | 57% |
| Cc1onc(-c2ccccc2Cl)c1C(=O)N[C@@H](Cc1ccc(OCc2c(Cl)cccc2Cl)cc1)C(=O)NC1CC(C)(C)NC(C)(C)C1 [Analog M-1568, Cmioc-OC2Y-Atmp] | – | 3.6 µM | Stim. |
| CC1(C)CC(NC(=O)C(Cc2ccc(OCc3c(Cl)cccc3Cl)cc2)NC(=O)C=CC(=O)c2ccccc2)CC(C)(C)N1 (centres unmarked) [Analog M-1576, Bzac-OC2Y-Atmp] | – | 6.2 µM | 57% |
| CN1CCN(CCCNC(=O)[C@H](Cc2ccc(OCc3c(Cl)cccc3Cl)cc2)NC(=O)/C=C/c2c(F)c(F)c(F)c(F)c2F)CC1 [Analog M-1582, F5c-OC2Y-Amp] | – | 6.7 µM | 60% |
| COc1ccc2c(c1)c(CC(=O)N[C@@H](Cc1ccc(OCc3c(Cl)cccc3Cl)cc1)C(=O)NCCCN1CCN(C)CC1)c(C)n2C(=O)c1ccc(Cl)cc1 [Analog M-1584, Indo-OC2Y-Amp] | – | 1.5 µM | 32% |
| COc1ccc2c(c1)c(CC(=O)N[C@H](Cc1ccc(OCc3c(Cl)cccc3Cl)cc1)C(=O)NC1CC(C)(C)NC(C)(C)C1)c(C)n2C(=O)c1ccc(Cl)cc1 [Analog M-1586, Indo-D-OC2Y-Atmp] | – | 1.7 µM | 38% |
| COc1ccc2c(c1)c(CC(=O)NC(Cc1ccc(OCc3c(Cl)cccc3Cl)cc1)C(=O)NC1CN3CCC1CC3)c(C)n2C(=O)c1ccc(Cl)cc1 [Analog M-1588, Indo-OC2Y-(R)-Aqu] | – | 3.9 µM | 8% |
| COc1ccc2c(c1)c(CC(=O)NC(Cc1ccc(OCc3c(Cl)cccc3Cl)cc1)C(=O)NC1CN3CCC1CC3)c(C)n2C(=O)c1ccc(Cl)cc1 [Analog M-1590, Indo-OC2Y-(S)-Aqu] | – | 4.1 µM | Stim. |

| SMILES | IC50 (NSCLC strain A-549) | IC50 (SCLC strain SHP-77) | PC3 In vivo % inhib. (PC3 PC cells) |
| --- | --- | --- | --- |
| CC1(C)CC(NC(=O)[C@H](Cc2ccc(OCc3c(Cl)cccc3Cl)cc2)NC(=O)c2ccc(N)cc2O)CC(C)(C)N1 [Analog M-1592, Pas-OC2Y-Atmp] | – | 7.2 µM | Stim. |
| CC1(C)CC(NC(=O)[C@H](Cc2ccc(OCc3c(Cl)cccc3Cl)cc2)NCc2c(F)c(F)c(F)c(F)c2F)CC(C)(C)N1 [Analog M-1594, F5b-OC2Y-Atmp] | – | 3.1 µM | 20% |
| CC1(C)CC(NC(=O)[C@H](Cc2ccc(OCc3c(Cl)cccc3Cl)cc2)NCC=C(c2ccccc2)c2ccccc2)CC(C)(C)N1 [Analog M-1600, Pcnl-OC2Y-Atmp] | – | 4.1 µM | 44% |
| CC1(C)CC(NC(=O)[C@H](Cc2ccc(OCc3c(Cl)cccc3Cl)cc2)NC(=O)c2c3ccccc3nc3ccccc23)CC(C)(C)N1 [Analog M-1602, Acrc-OC2Y-Atmp] | – | 1.6 µM | Stim. |
| CC1(C)CC(NC(=O)[C@H](Cc2ccc(OCc3c(Cl)cccc3Cl)cc2)NCc2cnc3ccccc3c2)CC(C)(C)N1 [Analog M-1604, 3Qum-OC2Y-Atmp] | – | 7.4 µM | Stim. |
| CC1(C)CC(NC(=O)[C@H](Cc2ccc(OC(=O)OCc3ccccc3Br)cc2)NC(=O)/C=C/c2c(F)c(F)c(F)c(F)c2F)CC(C)(C)N1 [Analog M-1608, F5c-ObrZY-Atmp] | – | 10 µM | 29% |
| Cc1ncc(CO)c(CN[C@@H](Cc2ccc(OCc3c(Cl)cccc3Cl)cc2)C(=O)NC2CC(C)(C)NC(C)(C)C2)c1O [Analog M-1610, B6-OC2Y-Atmp] | – | > 60 µM | Stim. |
| Cc1ncc(COP(=O)(O)O)c(CN[C@@H](Cc2ccc(OCc3c(Cl)cccc3Cl)cc2)C(=O)NC2CC(C)(C)NC(C)(C)C2)c1O [Analog M-1612, B6P-OC2Y-Atmp] | – | > 60 µM | Stim. |
| C=CCN1C(C)CN(C(=O)C(Cc2ccc(OCc3c(Cl)cccc3Cl)cc2)NC(=O)C=Cc2c(F)c(F)c(F)c(F)c2F)CC1C (centres unmarked) [Analog M-1614, F5c-OC2Y-cDmap] | – | 2 µM | 54% |
| CC1(C)CC(NC(=O)[C@H](Cc2ccc(OCc3c(Cl)cccc3Cl)cc2)NC(=O)CCP(=O)(O)O)CC(C)(C)N1 [Analog M-1616, 3Php-OC2Y-Atmp] | – | > 60 µM | 18% |
| CC1(C)CC(NC(=O)[C@H](Cc2ccc(OCc3c(Cl)cccc3Cl)cc2)NC(=O)c2ccc3c(c2)C(=O)c2ccccc2C3=O)CC(C)(C)N1 [Analog M-1618, Aq2c-OC2Y-Atmp] | – | 2.2 µM | 10% |
| Cc1ncc(CO)c(CNC(=O)[C@H](Cc2ccc(OCc3c(Cl)cccc3Cl)cc2)NC(=O)/C=C/c2c(F)c(F)c(F)c(F)c2F)c1O [Analog M-1622, F5c-OC2Y-Pxa] | – | 22 µM | 58% |
| O=C(/C=C/c1c(F)c(F)c(F)c(F)c1F)N[C@@H](Cc1ccc(OCc2c(Cl)cccc2Cl)cc1)C(=O)NCc1nc2ccccc2[nH]1 [Analog M-1624, F5c-OC2Y-Ambi] | – | 50 µM | 68% |
| CC1(C)CC(NC(=O)C(Cc2ccc(OCc3c(Cl)cccc3Cl)cc2)NC(=O)C2CSC(=O)N2)CC(C)(C)N1 (centres unmarked) [Analog M-1630, Otac-OC2Y-Atmp] | – | 60 µM | 71% |
| O=C(/C=C/c1c(F)c(F)c(F)c(F)c1F)N[C@@H](Cc1ccc(OCc2c(Cl)cccc2Cl)cc1)C(=O)NCCN1CCOCC1 [Analog M-1632, F5c-OC2Y-Aem] | – | 7.8 µM | 32% |
| O=C([C@H](Cc1ccc(OCc2c(Cl)cccc2Cl)cc1)NCc1c(F)c(F)c(F)c(F)c1F)N1CCN(C/C=C/c2ccccc2)CC1 [Analog M-1634, F5b-OC2Y-tCip] | – | > 60 µM | Stim. |
| CC1(C)CC(NC(=O)[C@H](Cc2ccc(OCc3c(Cl)cccc3Cl)cc2)NC(=O)C(C#N)=Cc2ccc(O)cc2)CC(C)(C)N1 [Analog M-1638, Chc-OC2Y-Atmp] | – | 18 µM | 39% |
| CC1(C)CC(NC(=O)C(Cc2ccc(OCc3c(Cl)cccc3Cl)cc2)NC(=O)C=Cc2ccc(N)cc2)CC(C)(C)N1 (centres unmarked) [Analog M-1648, Pac-OC2Y-Atmp] | – | 7.6 µM | 28% |
| CC1(C)CC(NC(=O)[C@H](Cc2ccc(OCc3c(Cl)cccc3Cl)cc2)NC(=O)CC2CC3CCC2C3)CC(C)(C)N1 (some centres unmarked) [Analog M-1650, Nba-OC2Y-Atmp] | – | 4.3 µM | 40% |
